In patent US11903917B2, “MEK-inhibitor for the treatment of viral and bacterial infections” (priority 2017, dated 2024):
Read-outs that look alike come from different tables or passages of the source.

Experiments:
S. aureus 6850 [1] = test: Over-night treated culture, bacterial titers (CFU/ml) and OD600; type: cell-based, Staphylococcus aureus; conditions: for effect on bacterial titers (CFU/ml): over night treatment, S. aureus 6850, vs solvent
MRSA strain USA300 = test: as above; type: cell-based, Staphylococcus aureus
S. aureus 6850 [2] = test: MIC of antibiotics (MIC test stripes) after over-night treatment of bacteria with PD0184264; type: cell-based, Staphylococcus aureus; conditions: for MIC: read-out: Minimal inhibitory concentration (MIC)
S. aureus USA300 = test: as above; type: cell-based, Staphylococcus aureus; conditions: for MIC: Staphylococcus aureus, read-out: Minimal inhibitory concentration (MIC)
S. aureus = test: Resistance development during 17 days of constant treatment; type: cell-based, Staphylococcus aureus; conditions: 24 h cycles repeated for 17 days
[3] = system: influenza A virus strain RB1 [A/Regensburg/D6/09 (H1N1 pdm09)]; conditions: against RB1, Haasbach et al. 2017; cited from earlier work
[4] = system: influenza A virus strain RB1 [A/Regensburg/D6/09 (H1N1 pdm09)]; test: Progeny virus inhibition assay in A549 cells; type: cell-based
A549 cells = conditions: read-out: CC50 value; Haasbach et al. 2017; cited from earlier work
S. aureus 6850 [5] = type: cell-based, Staphylococcus aureus
[6] = system: MRSA strain S. aureus (USA300); test: Cell-free culture bacterial growth (OD600); conditions: 50 μM, monitored for 360 minutes, vs solvent DMSO
Protocol: Bacterial growth was monitored for 360 minutes.
MRSA bacteria were incubated with different concentrations of the MEK inhibitor ranging from 0-100 μM and bacterial growth was monitored six hours after cultivation.

[7] = Pharmacokinetics, drug in plasma after i.v. or per os application; type: in vivo, NMRI mice
Protocol: Blood was collected at 15 min, 30 min, 1 h, 2 h, 4 h, 6 h, 8 h and 24 h (test day 2) after administration and plasma was analysed for the presence of the drug. […] Blood was collected at 15 min, 30 min, 1 h, 2 h, 4 h, 6 h, 8 h and 24 h (test day 2) after administration and plasma was analysed for the presence of the drug. Each data point represents the mean value of three plasma samples. Graphpad Prism 7 software was used to illustrate both figures.
34.88 mg PD-0184264 were dissolved in 0.075 ml DMSO and further diluted with 0.225 ml Cremophor EL/2.7 ml PBS. […] 81.0 mg PD-0184264 were dissolved in 0.2 ml DMSO/0.6 ml Cremophor EL/3.2 ml PBS.
Eight week old male NMRI mice (Charles River Laboratories, Germany) with a body weight of 23.9-36.5 g at administration were used for pharmacokinetic studies. The animals were normally fed. Drinking water was available ad libitum.
Experiments were performed at LPT GmbH (Hamburg, Germany). Sufficient whole blood—taken under isoflurane anaesthesia—was collected to obtain at least 2×100 μl Li-Heparin plasma of 3 animals per group and time-point at the following times: 0 (predose), 15 min, 30 min, 1 h, 2 h, 4 h, 6 h, 8 h and 24 h (test day 2) after administration. The whole blood samples were instantly cooled using an Iso-Therm-Rack system (Eppendorf AG, Germany) until centrifugation within 0.5 hours after withdrawal. Immediately after centrifugation, the samples were stored at −20° C. until further analysis. Plasma analysis was performed using standard procedures at Prolytic GmbH (Frankfurt, Germany).
Drugs were either administrated using a single dosing on test day 1 by oral gavage or by Intravenous bolus injection into a tail vein. The Injection speed was 15 s/dose with an administration volume of 200 μl.

[8] = Staphylococcus aureus, 6850, S. aureus 6850, culture treated over night with 20 μM PD0184264
[9] = Staphylococcus aureus, 6850, S. aureus 6850, untreated (solvent) culture
[10] = USA300, S. aureus USA300, culture treated over night with PD0184264
[11] = USA300, S. aureus USA300, untreated (solvent) culture
[12] = S. aureus 6850, culture treated over night with 20 μM PD0184264
[13] = S. aureus 6850, untreated (solvent) culture
[14] = S. aureus USA300, culture treated over night with PD0184264
[15] = S. aureus USA300, untreated (solvent) culture

N#CC(=C(/N)Sc1ccccc1N)/C(C#N)=C(\N)Sc1ccccc1N [U0126, reference compound]
effect on bacterial titers (CFU/ml) (S. aureus 6850 [1]): minor reduction in bacterial titers
effect on bacterial titers (CFU/ml) (MRSA strain USA300; over night treatment, MRSA USA300, vs solvent): minor reduction in bacterial titers

CC(=O)NC[C@H]1CN(c2ccc(N3CCOCC3)c(F)c2)C(=O)O1 [Linezolid]
MIC (S. aureus 6850 [2]; [8]): 1 µg/mL
MIC (S. aureus 6850 [2]; [9]): 2 µg/mL
MIC (S. aureus USA300; [10]): 1 µg/mL
MIC (S. aureus USA300; [11]): 2 µg/mL

CC[C@H]1OC(=O)[C@H](C)[C@@H](O[C@H]2C[C@@](C)(OC)[C@@H](O)[C@H](C)O2)[C@H](C)[C@@H](O[C@@H]2O[C@H](C)C[C@H](N(C)C)[C@H]2O)[C@](C)(O)C[C@@H](C)C(=O)[C@H](C)[C@@H](O)[C@]1(C)O [Erythromycin]
resistance development in S. aureus (S. aureus): readily develop resistances

C[C@@H](O)[C@H]1C(=O)N2C(C(=O)O)=C(S[C@@H]3CN[C@H](C(=O)N(C)C)C3)[C@H](C)[C@H]12 [Meropenem]
MIC (S. aureus 6850 [2]; [8]): 0.03 µg/mL
MIC (S. aureus 6850 [2]; [9]): 0.06 µg/mL
MIC (S. aureus USA300; [10]): 0.06 µg/mL
MIC (S. aureus USA300; [11]): 0.12 to 0.25 µg/mL

Penicillin
Minimal inhibitory concentration (MIC) (S. aureus 6850 [2]; [12]): 0.25 to 0.5 µg/mL
Minimal inhibitory concentration (MIC) (S. aureus 6850 [2]; [13]): 16 µg/mL
Minimal inhibitory concentration (MIC) (S. aureus USA300; [14]): 8 µg/mL
Minimal inhibitory concentration (MIC) (S. aureus USA300; [15]): >256 µg/mL

O=C(O)c1cn(C2CC2)c2cc(N3CCNCC3)c(F)cc2c1=O [Ciprofloxacin]
MIC (S. aureus 6850 [2]; [8]): 0.12 to 0.25 µg/mL
MIC (S. aureus 6850 [2]; [9]): 0.25 µg/mL
MIC (S. aureus USA300; [10]): 4 to 8 µg/mL
MIC (S. aureus USA300; [11]): 8 µg/mL

O=C(NOCC1CC1)c1ccc(F)c(F)c1Nc1ccc(I)cc1Cl [CI-1040, 2-(2-chloro-4-iodophenylamino)-N-(cyclopropylmethoxy)-3,4-difluoro benzamide, reference compound]
EC50 [3]: 26 nM
reduction of virus titer [4]: 96.78±0.65%
effect on bacterial titers (CFU/ml) (S. aureus 6850 [1]): effective
CC50 (A549 cells): > 312000 nM
intracellular bacterial titers (S. aureus 6850 [5]): no changes in intracellular bacterial load
bacterial growth (OD600) [6]: slightly inhibited
drug in plasma at eight hours ([7]; 75 mg/kg i.v. application): almost no drug was detected
drug in plasma at eight hours ([7]; 150 mg/kg per os application): almost no drug was detected

Gentamicin
Minimal inhibitory concentration (MIC) (S. aureus 6850 [2]; [12]): 0.12 µg/mL
Minimal inhibitory concentration (MIC) (S. aureus 6850 [2]; [13]): 2 µg/mL
Minimal inhibitory concentration (MIC) (S. aureus USA300; [14]): 0.12 µg/mL
Minimal inhibitory concentration (MIC) (S. aureus USA300; [15]): 1 µg/mL
reduction in bacterial titers (S. aureus 6850 [1]; 0.5 μg/ml, over night, S. aureus 6850): no reduction in bacterial titers
bacterial growth (S. aureus 6850 [1]; concentrations higher than 1 μg/ml, over night, S. aureus 6850): strongly inhibited
resistance development in S. aureus (S. aureus): resistance development occurred during the first week of treatment
reduction in bacterial titers (MRSA strain USA300; 0.5 μg/ml, over night, MRSA USA300): no reduction in bacterial titers
bacterial growth (MRSA strain USA300; concentrations higher than 1 μg/ml, over night, MRSA USA300): strongly inhibited
